Earlier results, collected in patent publication US20090012010A1, “Amino acid derivatives as calcium channel blockers” (Neuromed Phramaceuticals Ltd., priority 2007, published 2009).

Tested on: T-type calcium channels

COCC(=O)O[C@]1(CCN(C)CCCc2nc3ccccc3[nH]2)CCc2cc(F)ccc2[C@@H]1C(C)C [Mibefradil]
fold selective for T-type over L-type channels: 10-30 fold
